Reference: ChEMBL document CHEMBL2413072, “Synthesis and in vitro anticancer studies of novel C-2 arylidene congeners of lantadenes” (2013)

Assays:
Format in all cases: functional
NCI-H322M = assay: Growth inhibition of human NCI-H322M cells by sulforhodamine B assay
HL-60(TB) [1] = assay: Growth inhibition of human HL-60(TB) cells by sulforhodamine B assay
RXF 393 = assay: Growth inhibition of human RXF393 cells assessed as growth inhibition at 10 uM by sulforhodamine B assay; details: read-out: GI
HL-60(TB) [2] = assay: Growth inhibition of human HL-60(TB) cells assessed as cell growth at 10 uM by sulforhodamine B assay; details: read-out: Activity
CCRF-CEM = assay: Growth inhibition of human CCRF-CEM cells assessed as cell growth at 10 uM by sulforhodamine B assay; details: read-out: Activity
OVCAR-3 = assay: Growth inhibition of human OVCAR3 cells assessed as growth inhibition at 10 uM by sulforhodamine B assay; details: read-out: GI
SK-MEL-2 = assay: Growth inhibition of human SK-MEL-2 cells assessed as growth inhibition at 10 uM by sulforhodamine B assay; details: read-out: GI
SK-MEL-28 = assay: Growth inhibition of human SK-MEL-28 cells assessed as growth inhibition at 10 uM by sulforhodamine B assay; details: read-out: GI
SNB-19 = assay: Growth inhibition of human SNB19 cells assessed as growth inhibition at 10 uM by sulforhodamine B assay; details: read-out: GI
KM12 [3] = assay: Growth inhibition of human KM12 cells assessed as growth inhibition at 10 uM by sulforhodamine B assay; details: read-out: GI
[4] = Growth inhibition of human HCC2998 cells assessed as growth inhibition at 10 uM by sulforhodamine B assay; details: HCC 2998, read-out: GI
HOP-92 = assay: Growth inhibition of human HOP92 cells assessed as growth inhibition at 10 uM by sulforhodamine B assay; details: read-out: GI
[5] = Growth inhibition of human EKVX cells assessed as growth inhibition at 10 uM by sulforhodamine B assay; details: read-out: GI
A549 = assay: Growth inhibition of human A549/ATCC cells assessed as growth inhibition at 10 uM by sulforhodamine B assay; details: read-out: GI
BT-549 = assay: Growth inhibition of human BT549 cells assessed as cell growth at 10 uM by sulforhodamine B assay; details: read-out: Activity
PC-3 = assay: Growth inhibition of human PC3 cells assessed as cell growth at 10 uM by sulforhodamine B assay; details: read-out: Activity
TK-10 [6] = assay: Growth inhibition of human TK10 cells assessed as cell growth at 10 uM by sulforhodamine B assay; details: read-out: Activity
OVCAR-5 [7] = assay: Growth inhibition of human OVCAR5 cells assessed as cell growth at 10 uM by sulforhodamine B assay; details: read-out: Activity
MDA-MB-435 [8] = assay: Growth inhibition of human MDA-MB-435 cells assessed as cell growth at 10 uM by sulforhodamine B assay; details: read-out: Activity
LOX IMVI = assay: Growth inhibition of human LOXIMVI cells assessed as cell growth at 10 uM by sulforhodamine B assay; details: read-out: Activity
KM12 [9] = assay: Growth inhibition of human KM12 cells assessed as cell growth at 10 uM by sulforhodamine B assay; details: read-out: Activity
HCT-116 = assay: Growth inhibition of human HCT116 cells assessed as cell growth at 10 uM by sulforhodamine B assay; details: read-out: Activity
[10] = Growth inhibition of human EKVX cells assessed as cell growth at 10 uM by sulforhodamine B assay; details: read-out: Activity
RPMI-8226 = assay: Growth inhibition of human RPMI8226 cells assessed as cell growth at 10 uM by sulforhodamine B assay; details: read-out: Activity
KM12 [11] = assay: Growth inhibition of human KM12 cells assessed as cell growth at 10^-8 M by sulforhodamine B assay; details: read-out: Activity
NCI-H460 = assay: Growth inhibition of human NCI-H460 cells assessed as cell growth at 10^-8 M by sulforhodamine B assay; details: read-out: Activity
TK-10 [12] = assay: Growth inhibition of human TK10 cells by sulforhodamine B assay
[13] = Growth inhibition of human NCI-ADR-RES cells by sulforhodamine B assay
OVCAR-5 [14] = assay: Growth inhibition of human OVCAR5 cells by sulforhodamine B assay
MDA-MB-435 [15] = assay: Growth inhibition of human MDA-MB-435 cells by sulforhodamine B assay
SF-295 = assay: Growth inhibition of human SF295 cells by sulforhodamine B assay
MOLT-4 [16] = assay: Growth inhibition of human MOLT4 cells assessed as cell growth at 10^-4 M by sulforhodamine B assay; details: read-out: Activity
[17] = Growth inhibition of human Hs 578T cells assessed as cell growth at 10^-6 M by sulforhodamine B assay; details: read-out: Activity
NCI-H522 = assay: Growth inhibition of human NCI-H522 cells assessed as cell growth at 10^-6 M by sulforhodamine B assay; details: read-out: Activity
MOLT-4 [18] = assay: Growth inhibition of human MOLT4 cells assessed as cell growth at 10^-6 M by sulforhodamine B assay; details: read-out: Activity
UO-31 [19] = assay: Growth inhibition of human UO31 cells assessed as cell growth at 10^-7 M by sulforhodamine B assay; details: read-out: Activity
HCT-15 = assay: Growth inhibition of human HCT15 cells assessed as cell growth at 10^-7 M by sulforhodamine B assay; details: read-out: Activity
NCI-H23 = assay: Growth inhibition of human NCI-H23 cells assessed as cell growth at 10^-7 M by sulforhodamine B assay; details: read-out: Activity
DU-145 = assay: Growth inhibition of human DU145 cells assessed as cell growth at 10^-8 M by sulforhodamine B assay; details: read-out: Activity
UO-31 [20] = assay: Growth inhibition of human UO31 cells assessed as cell growth at 10^-8 M by sulforhodamine B assay; details: read-out: Activity
OVCAR-8 = assay: Growth inhibition of human OVCAR8 cells assessed as cell growth at 10^-8 M by sulforhodamine B assay; details: read-out: Activity
[21] = read-out: LC50 (the source's name)
[22] = read-out: pLC50 (the source's name) (converted)

Compound `CC1(C)C[C@@H](O)[C@]2(C(=O)O)CC[C@]3(C)C(=CC[C@@H]4[C@@]5(C)C/C(=C\C=C\c6ccccc6)C(=O)C(C)(C)[C@@H]5CC[C@]43C)[C@@H]2C1` has a GI50 (NCI-H322M; read-out: GI50) of 3.45 µM, an LC50 (50% lethal concentration) (NCI-H322M; read-out: LC50) of 48.7 µM and a TGI (NCI-H322M; read-out: TGI) of 13.7 µM. For the same compound, the GI50 (NCI-H322M; read-out: pGI50 (converted)) was 3.47 µM, the LC50 (50% lethal concentration) (NCI-H322M; read-out: pLC50 (converted)) was 49 µM and the TGI (NCI-H322M; read-out: pTGI (converted)) was 13.8 µM. For the same compound, the GI50 (HL-60(TB) [1]; read-out: GI50) was 2.92 µM, the CC50 (HL-60(TB) [1]; [21]) was greater than 100 µM and the TGI (HL-60(TB) [1]; read-out: TGI) was 6.89 µM. For the same compound, the GI50 (HL-60(TB) [1]; read-out: pGI50 (converted)) was 2.88 µM, the CC50 (HL-60(TB) [1]; [22]) was greater than 100 µM and the TGI (HL-60(TB) [1]; read-out: pTGI (converted)) was 6.92 µM. It also gave an inhibition of growth at 10 µM (RXF 393) of 15.9%, a growth at 10 µM (HL-60(TB) [2]) of 38.8% and a growth at 10 µM (CCRF-CEM) of 19.9%. For the same compound, the inhibition of growth at 10 µM (OVCAR-3) was 42.7%, the inhibition of growth at 10 µM (SK-MEL-2) was 35.4% and the inhibition of growth at 10 µM (SK-MEL-28) was 25.8%. The inhibition of growth at 10 µM (SNB-19) was 26.6%, the inhibition of growth at 10 µM (KM12 [3]) was 68.2% and the inhibition of growth at 10 µM [4] was 17.2%. The inhibition of growth at 10 µM (HOP-92) was 50.8%, the inhibition of growth at 10 µM [5] was 60.6% and the inhibition of growth at 10 µM (A549) was 77.3%. For the same compound, the growth at 10 µM (BT-549) was 70%, the growth at 10 µM (PC-3) was 41.5% and the growth at 10 µM (TK-10 [6]) was 88.3%. For the same compound, the growth at 10 µM (OVCAR-5 [7]) was 104%, the growth at 10 µM (MDA-MB-435 [8]) was 72.3% and the growth at 10 µM (LOX IMVI) was 61.4%. For the same compound, the growth at 10 µM (KM12 [9]) was 31.8%, the growth at 10 µM (HCT-116) was 17.5% and the growth at 10 µM [10] was 39.4%. For the same compound, the growth at 10 µM (RPMI-8226) was 15.6%, the growth at 0.01 µM (KM12 [11]) was 101% and the growth at 0.01 µM (NCI-H460) was 102%. It also gave a GI50 (TK-10 [12]; read-out: GI50) of 3.71 µM, a CC50 (TK-10 [12]; [21]) of 42.4 µM and a TGI (TK-10 [12]; read-out: TGI) of 12.8 µM. It also gave a GI50 (TK-10 [12]; read-out: pGI50 (converted)) of 3.72 µM, a CC50 (TK-10 [12]; [22]) of 42.7 µM and a TGI (TK-10 [12]; read-out: pTGI (converted)) of 12.9 µM. The GI50 ([13]; read-out: GI50) was 3.29 µM, the CC50 [13, 21] was 43.2 µM and the TGI ([13]; read-out: TGI) was 14.1 µM. The GI50 ([13]; read-out: pGI50 (converted)) was 3.31 µM, the CC50 [13, 22] was 43.7 µM and the TGI ([13]; read-out: pTGI (converted)) was 14.1 µM. It also gave a GI50 (OVCAR-5 [14]; read-out: GI50) of 2.97 µM, a CC50 (OVCAR-5 [14]; [21]) of 33.6 µM and a TGI (OVCAR-5 [14]; read-out: TGI) of 10.5 µM. For the same compound, the GI50 (OVCAR-5 [14]; read-out: pGI50 (converted)) was 2.95 µM, the CC50 (OVCAR-5 [14]; [22]) was 33.9 µM and the TGI (OVCAR-5 [14]; read-out: pTGI (converted)) was 10.5 µM. It also gave a GI50 (MDA-MB-435 [15]; read-out: GI50) of 3.28 µM, a CC50 (MDA-MB-435 [15]; [21]) greater than 100 µM and a TGI (MDA-MB-435 [15]; read-out: TGI) of 14.4 µM. It also gave a GI50 (MDA-MB-435 [15]; read-out: pGI50 (converted)) of 3.31 µM, a CC50 (MDA-MB-435 [15]; [22]) greater than 100 µM and a TGI (MDA-MB-435 [15]; read-out: pTGI (converted)) of 14.5 µM. The GI50 (SF-295; read-out: GI50) was 2.4 µM, the CC50 (SF-295; [21]) was 49.8 µM and the TGI (SF-295; read-out: TGI) was 7.56 µM. The GI50 (SF-295; read-out: pGI50 (converted)) was 2.4 µM, the CC50 (SF-295; [22]) was 50.1 µM and the TGI (SF-295; read-out: pTGI (converted)) was 7.59 µM. It also gave a growth at 100 µM (MOLT-4 [16]) of -28%, a growth at 1 µM [17] of 87% and a growth at 1 µM (NCI-H522) of 94%. The growth at 1 µM (MOLT-4 [18]) was 89%, the growth at 0.1 µM (UO-31 [19]) was 94% and the growth at 0.1 µM (HCT-15) was 96%. It also gave a growth at 0.1 µM (NCI-H23) of 95%, a growth at 0.01 µM (DU-145) of 106% and a growth at 0.01 µM (UO-31 [20]) of 88%. It also gave a growth at 0.01 µM (OVCAR-8) of 95%.
